Results: patent publication US8796336B2, “Methoxypolyethylene glycol chelate and uses thereof” (Eastern Virginia Medical School, priority 2006, dated 2014)

Legend:
H9C2 cells = assay: Doxorubicin chemotoxicity on H9C2 cells, intracellular calcium by fluo-3 AM; format: cell-based, rat; conditions: 10 min exposure to 50 μM doxorubicin, cells without MPDTE pretreatment
Procedure: H9C2 cells, which are used as models for rat striated muscle, were cultured using techniques described previously (Lattanzio, F A Jr., Tiangco, D., Osgood, C., Beebe, S., Kerry, J. and Hargrave B Y. Cocaine increases intracellular calcium and reactive oxygen species, depolarizes mitochondria, and activates genes associated with heart failure and remodeling. Cardiovascular Toxiology (20050 5: 377-389). Fluorescent calcium indicator and ROS indicator were used to determine if the reported increase in intracellular calcium and ROS activity occurred and whether these changes were reduced in the presence of 2 mM MPSEDE or MPDTE. Cells were measured using a Zeiss 510 fluorescent confocal microscope as described in Lattanzio et al, 2005.
H9C2 cells, a rat myocyte model, were cultured in MEM until confluent using techniques described in Lattanzio et al, 2005. The cells were treated with 5 μM fluo-3 AM, a fluorescent calcium indicator, for 30 min at 37 C, washed and then exposed to 50 μM doxorubicin (a supermaximal toxic dose), in the presence or absence of 30 min pretreatment with 2 mM MPDTE. Doxorubicin increases intracellular calcium in cardiac cells by disrupting calcium homeostasis through the production of free radical damage and subsequent membrane damage. […] Protection may have occurred due to a combination of free radical scavenging and calcium chelation.

[1] = test system: retinal ganglion cells (RGC); assay: NMDA retinal damage model, scotopic electroretinogram A and B waves; format: in vivo, rats; conditions: for A wave, % Baseline, Intravitreal / B wave, % Baseline, Intravitreal: intravitreal 2 mM co-administered with 2 ul 10 mM NMDA; for A wave, % Baseline, Topical / B wave, % Baseline, Topical: topical 100 mM, 20 μl 3 times per day, 5 days prior and 3 days post-NMDA
Procedure: Changes in electroretinogram (ERG) A and B waves have been used as indicators of RGC damage. To examine RGC neuroprotection, 2 ul intravitreal injections of 10 mM NMDA, sufficient to change ERG A and B-waves within 2 weeks, were challenged with co-administered intravitreal (2 mM) or topical 100 mM MPDTE, MPSEDE and amifostine in normal rats unilaterally. For topical administration, rats were pretreated for 5 days prior and 3 days post-NMDA administration with the agents at a frequency of 3 times per day with 20 μl agent. Scotopic ERG changes were measured in normal rats. Rats were dark adapted for at least 4 hrs. Eyes were dilated with atropine after which proparacaine and methylcellulose gel were applied topically. Custom made AgCl electrodes (64-1317, Warner Instruments, Hamden, Conn.) were placed on the apex of the cornea. Stimuli consisted of 10-microsec flashes of unattenuated white light generated by Ganzfield bowl photo stimulator (Grass Instruments, PS22, Quincy, Mass.). Data from each eye was recorded separately with a driver amplifier (Grass Instruments, Model 7DAF Polygraph, Quincy, Mass.). Data was acquired digitally via DASYLab (Bedford, N.H.). The contralateral normal eye served as an age matched negative control, e.g. response in a normal, undamaged eye. Differences in amplitude of the A-wave and B-waves between the treated eye and the contralateral eye and between treatment groups were calculated.

[2] = test system: intraocular pressure (IOP); assay: Topical application for IOP measurements on rat surgical glaucoma (ocular hypertensive) model; format: in vivo, male SpragueDawley rats
Procedure: Ocular hypertension was induced in 9 male SpragueDawley rats, weighing between 400 to 500 grams. Under general anesthesia with acepromazine maleate (12 mg/Kg) and ketamine (80 mg/Kg), IP, and topical proparacaine (0.5%), dissection of the conjunctiva was made with fine cuts. To reduce the stimulus for revascularization or neovascularization, dissection of the right eye was limited to the area immediately surrounding the vortex veins. Three of four vortex veins were exposed and ligated using 9.0 nylon sutures. Criterion for inclusion into the study was an intraocular pressure (IOP) increase of 5 mm Hg or more when compared to […] baseline IOP. Within 6 weeks, the IOP of all the operated eyes increased at least 5 mm Hg compared to baseline. National Institutes of Health Guidelines and Association for Research in Vision and Ophthalmology statement for the Use and Care of Animals were followed in this study.
Prior to initiation of treatment, baseline IOP was obtained in glaucoma rat models. IOP was measured via a specially modified Goldmann applanation tonometer (HAAG-STREIT, Bern, Switzerland) under sedation. Measurements are averages of two consecutive readings and were made at the same time of day and by the same observers.
Rats were treated topically with 20 μl of MP compounds (0.3-100 mM; n=3-6) on the operated eyes. […]

Compound: COc1cccc2c1C(=O)c1c(O)c3c(c(O)c1C2=O)C[C@@](O)(C(=O)CO)C[C@@H]3O[C@H]1C[C@H](N)[C@H](O)[C@H](C)O1 [doxorubicin]
- increase of intracellular calcium (H9C2 cells): 59.4%

Compound: NCCCNCCSP(=O)(O)O [amifostine, S-2-[3-aminopropylamino]ethylphosphorothioate]
- A wave, % Baseline, Intravitreal [1]: 94.2 % Baseline
- B wave, % Baseline, Intravitreal [1]: 83.3 % Baseline
- A wave, % Baseline, Topical [1]: 69.4 % Baseline
- B wave, % Baseline, Topical [1]: 99.3 % Baseline

Compound: CN[C@H](CC(=O)O)C(=O)O [NMDA, N-methyl-D-aspartate]
- A wave, % Baseline, Intravitreal [1]: 51.2 % Baseline
- B wave, % Baseline, Intravitreal [1]: 68.4 % Baseline
- A wave, % Baseline, Topical [1]: 51.2 % Baseline
- B wave, % Baseline, Topical [1]: 68.4 % Baseline

Compound: polyethylene glycol monomethyl ether [MP]
- IOP reduction of the components ([2]; MP or DTE administered alone or together, not as great as with MPDTE, FIG. 10): reduction in IOP

Compound: methoxypolyethlene glycol thioester of ethylenediaminetetraacetic acid methyl triester [MPSEDE]
- IOP reduction ([2]; single topical dose of 10-100 mM, FIG. 5-7): significantly reduced IOP
- reduction of NMDA damage ([1]; both intravitreal and topical administration (Table 1)): significantly reduced NMDA damage
- reduction of NMDA damage ([1]; co-administration with NMDA, at the dose tested): trend to reduce NMDA damage, but this was not significant
- A wave, % Baseline, Intravitreal [1]: 76.2 % Baseline
- B wave, % Baseline, Intravitreal [1]: 69.6 % Baseline
- A wave, % Baseline, Topical [1]: 95.9 % Baseline
- B wave, % Baseline, Topical [1]: 93.7 % Baseline
